Assays:
quantity of secretion = assay: Expectorant (secretolytic) activity in anesthetized guinea pigs (Perry et al, modified by Engelhorn et al), oral; format: in vivo; conditions: guinea pig, over 2 hours
Method: The expectorant activity was ascertained by the method of Perry et al, J. Pharmcol. exp. Therap. 73, 65 (1941), as modified by Engelhorn et al, Arzneim. Forsch. 21, 1045 (1971), on male guinea pigs (body weight from 450 to 550 gm), which has been anesthetized by intraperitoneal injection of a 25% urethane solution (1.0 gm/kg). The test compound was administered orally at the indicated dosage levels, each in 2 ml of distilled water, by means of an esophageal tube. 5 tests per dose. The increase in secretion was calculated from the quantity of fluid secreted over a period of 2 hours after administration of the test compound, as compared to the quantity secreted without administration of the test compound.

[1] = Acute toxicity after i.v. administration in NMRI-mice (Litchfield and Wilcoxon); conditions: mouse, in vivo, iv, both sexes, deaths within 14 days, read-out: LD50 in the mouse after i.v. application
Method: The acute toxicity was determined with NMRI-mice of both sexes (body weight 20 gm) after intravenous administration of the compound. 0.1 ml of a 0.9% sodium chloride solution per 10gm of animal was used as the vehicle.

[2] = test system: acetylcholine-induced bronchospasm; assay: Antagonism to acetylcholine-provoked bronchospasm in anesthetized guinea pigs (Konzett and Rossler), i.v.; antiasthmatic / bronchospasmolytic activity; format: in vivo; conditions: guinea pig; for ED50: Cavia porcellus, iv, 20γ acetylcholine per kg i.v., graphic extrapolation, read-out: Bronchospasmolytic ED50 against acetylcholine-induced bronchospasm
Method: The antiasthmatic activity was tested as the antagonism to bronchospasm provoked by intravenous administration of 20γ of acetylcholine per kg body weight in anesthetized guinea pigs (according to method of Konzett and Rossler). From the average percentage decrease of the bronchospasm produced by administering various doses of the compounds of the […] invention an ED50 was determined by graphic extrapolation. The compounds were administered intravenously.

heart rate = assay: Effect on heart rate of the anesthetized cat after intravenous administration; format: in vivo; design: key to type of the reaction (heart rate): --: decrease in heart rate; conditions: i.v.; for ED10 (dose leading to a 10% alteration of the heart rate) / ED25 (dose leading to a 25% alteration of the heart rate): graphic extrapolation; for type of the reaction (heart rate): tested dosage range 250 - 4,000 γ/kg (A 12.5 - 16,000; W 125 - 4,000)
Method: The effect on the heart rate was tested on cats of both sexes (body weight between 2.3 and 3.5 kg) under chloralose-urethane anesthesia. The heart rate was continuously registered by means of a Grass-tachograph 7P4, controlled by the R-wave of the electrocardiogram. The test compound was injected through a catheter introduced into the vena femoralis.

Compound | percent change in quantity of secretion (increase) (quantity of secretion; dose 0.5 γ/kg) | percent change in quantity of secretion (increase) (quantity of secretion; dose 5 γ/kg) | LD50 at 336 h [1] | ED50 [2] | Average duration of effective action in the ED50 range [2] | ED10 (dose leading to a 10% alteration of the heart rate) (heart rate) | ED25 (dose leading to a 25% alteration of the heart rate) (heart rate) | type of the reaction (heart rate) (heart rate)
CCN(CC)CCCN1c2ccccc2N(C)C(=O)c2cccnc21.Cl [A, 11-(3'-diethylamino-n-propyl)-6,11-dihydro-6-methyl-5H-pyrido[2,3-b][1,5]benzodiazepin-5-one hydrochloride] | 80% | 114% | 62.3 mg/kg | 0.031 mg/kg | > 130 min | 2,100 γ/kg | > 16,000 γ/kg | --
CN(C)CCN1c2ccccc2N(C)C(=O)c2cccnc21.Cl [B, 6,11-dihydro-11-(2'-dimethylamino-ethyl)-6-methyl-5H-pyrido[2,3-b][1,5]benzodiazepin-5-one hydrochloride] |  |  | 25.8 mg/kg | 0.148 mg/kg | > 110 min |  |  | 
CN(C)CCCN1c2ccccc2N(C)C(=O)c2cccnc21.Cl [C, 6,11-dihydro-11-(3'-dimethylamino-n-propyl)-6-methyl-5H-pyrido[2,3-b][1,5]benzodiazepin-5-one hydrochloride] |  |  | 30.7 mg/kg | 0.081 mg/kg | > 60 min | > 4,000 γ/kg |  | --
CNCCCN1c2ccccc2N(C)C(=O)c2cccnc21.Cl [D, 6,11-dihydro-6-methyl-11-(3'-methylamino-n-propyl)-5H-pyrido[2,3-b][1,5]benzodiazepin-5-one hydrochloride] |  |  | 43.2 mg/kg | 0.155 mg/kg | 45 min |  |  | 
CCNCCCN1c2ccccc2N(C)C(=O)c2cccnc21.Cl [E, 11-(3'-ethylamino-n-propyl)-6,11-dihydro-6-methyl-5H-pyrido[2,3-b][1,5]benzodiazepin-5-one hydrochloride] |  |  | 56.1 mg/kg | 0.068 mg/kg | > 90 min | 1,050 γ/kg | > 4,000 γ/kg | --
CC(C)NCCCN1c2ccccc2N(C)C(=O)c2cccnc21.Cl [F, 6,11-dihydro-11-(3'-isopropylamino-n-propyl)-6-methyl-5H-pyrido[2,3-b][1,5]benzodiazepin-5one hydrochloride] |  |  | 43.5 mg/kg | 0.172 mg/kg | > 110 min |  |  | 
CCN(CC)CCN1c2ccccc2N(C)C(=O)c2cccnc21.Cl [G, 11-(2'-diethylamino-ethyl)-6,11-dihydro-6-methyl-5H-pyrido[2,3-b][1,5]benzodiazepin-5-one hydrochloride] |  |  | 27.1 mg/kg | 0.044 mg/kg | 50 min |  |  | 
CCCN(CCC)CCCN1c2ccccc2N(C)C(=O)c2cccnc21.Cl [H, 6,11-dihydro-11-(3'-di-n-propylamino-n-propyl)-6-methyl-5H-pyrido[2,3-b][1,5]benzodiazepin-5-one hydrochloride] |  |  | 21.7 mg/kg | 0.095 mg/kg | > 70 min |  |  | 
CC(C)N(CCN1c2ccccc2N(C)C(=O)c2cccnc21)C(C)C.Cl [I, 6,11-dihydro-11-(2'-diisopropylamino-ethyl)-6-methyl-5H-pyrido[2,3-b][1,5]benzodiazepin-5-one hydrochloride] |  |  | 30.3 mg/kg | 0.018 mg/kg | 40 min | 1,300 γ/kg | > 4,000 γ/kg | --
CN1C(=O)c2cccnc2N(CCCN2CCCC2)c2ccccc21.Cl [L, 6,11-dihydro-6-methyl-11-(3'-pyrrolidino-n-propyl)-5H-pyrido[2,3-b][1,5]benzodiazepin-5one hydrochloride] |  |  | 22.7 mg/kg | 0.043 mg/kg | 120 min | 1,900 γ/kg | 3,950 γ/kg | --
CN1C(=O)c2cccnc2N(CCCN2CCCCC2)c2ccccc21.Cl [M, 6,11-dihydro-6-methyl-11-(3'-piperidino-n-propyl)-5H-pyrido[2,3-b][1,5]benzodiazepin-5-one hydrochloride] |  |  | 10.6 mg/kg | 0.063 mg/kg | > 60 min | 1,400 γ/kg | > 4,000 γ/kg | --
CN1C(=O)c2cccnc2N(CCCN2CCCCCC2)c2ccccc21.Cl [N, 6,11-dihydro-11-(3'-hexamethyleneimino-n-propyl)-6-methyl-5H-pyrido[2,3-b][1,5]benzodiazepin-5-one hydrochloride] |  |  | 12.7 mg/kg | 0.064 mg/kg | > 50 min |  |  | 
CN1C(=O)c2cccnc2N(CCN2CCCC2)c2ccccc21.Cl [O, 6,11-dihydro-6-methyl-11-(2'-pyrrolidino-ethyl)-5H-pyrido[2,3-b][1,5]benzodiazepin-5-one hydrochloride] |  |  | 11.4 mg/kg | 0.097 mg/kg | > 30 min | > 4,000 γ/kg |  | --
CCN(CC)CCN1c2ccccc2C(=O)N(C)c2cccnc21.Cl [P, 11-(2'-diethylamino-ethyl)-5,11-dihydro-5-methyl-6H-pyrido[2,3-b][1,4]benzodiazepin-6-one hydrochloride] |  |  |  | 0.21 mg/kg | 110 min |  |  | 
CC(C)N(CCN1c2ccccc2C(=O)N(C)c2cccnc21)C(C)C.Cl [Q, 5,11-dihydro-11-(2'-diisopropylamino-ethyl)-5-methyl-6H-pyrido[2,3-b][1,4]benzodiazepin-6-one hydrochloride] |  |  | 27 mg/kg | 0.053 mg/kg | > 50 min |  |  | 
CN(C)CCCN1c2ccccc2C(=O)N(C)c2cccnc21 [R, 5,11-dihydro-11-(3'-dimethylamino-n-propyl)-5-methyl-6H-pyrido[2,3-b][1,4]benzodiazepin-6-one] |  |  |  | 0.19 mg/kg | > 50 min |  |  | 
CCN(CC)CCCN1c2ccccc2C(=O)N(C)c2cccnc21.Cl [S, 5,11-dihydro-11-(3'-diethylamino-n-propyl)-5-methyl-6H-pyrido[2,3-b][1,4]benzodiazepin-6-one hydrochloride] |  |  |  | 0.123 mg/kg | > 110 min |  |  | 
CC(C)N(CCCN1c2ccccc2C(=O)N(C)c2cccnc21)C(C)C.Cl [T, 5,11-dihydro-11-(3'-diisopropylamino-n-propyl)-5-methyl-6H-pyrido[2,3-b][1,4]benzodiazepin-6-one hydrochloride] |  |  | 22.2 mg/kg | 0.0165 mg/kg | 50 min | 1,400 γ/kg | 3,600 γ/kg | --
CN1C(=O)c2ccccc2N(CCCN2CCCC2)c2ncccc21.Cl [U, 5,11-dihydro-5-methyl-11-(3-pyrrolidino-n-propyl)-6H-pyrido[2,3-b][1,4]benzodiazepin-6-one hydrochloride] |  |  | 22.9 mg/kg | 0.105 mg/kg | > 50 min | 2,300 γ/kg | > 4,000 γ/kg | --
CN1C(=O)c2ccccc2N(CCCN2CCCCC2)c2ncccc21.Cl [V, 5,11-dihydro-5-methyl-11-(3'-piperidino-n-propyl)-6H-pyrido[2,3-b][1,4]benzodiazepin-6-one hydrochloride] |  |  | 13.4 mg/kg | 0.18 mg/kg | > 110 min | 1,100 γ/kg | > 4,000 γ/kg | --
CN1C(=O)c2ccccc2N(CCCN2CCCCCC2)c2ncccc21.Cl [W, 5,11-dihydro-11-(3'-hexamethyleneimino-n-propyl)-5-methyl-6H-pyrido[2,3-b][1,4]benzodiazepin-6-one hydrochloride] |  |  | 13.4 mg/kg | 0.215 mg/kg | > 40 min | 1,200 γ/kg | > 4,000 γ/kg | --

Reference: US4021557A, “11-Aminoalkyl-pyridobenzodiazepinones and salts thereof” (Boehringer Ingelheim GmbH, priority 1974, dated 1977)
